Tests used:
Cdk2(H71C) (C177A) = target: T1, Cdk2(H71C) (C177A) (Homo sapiens, UniProt P24941, C177A/H71C); assay: Kinetic thiol consumption assay with Cdk2 mutant H71C; format: binding; parameters: key to Rate enhancement, Cdk2 H71C: rate constant with Cdk2 ÷ rate constant with model thiol (fold); conditions: additional mutation C177A; for Rate constant with Cdk2 H71C: Protein: Cdk2, cysteine position H71C, in h^-1
T1 construct: poly-histidine; made in house; host or cells: E. coli
How it was run: (§1)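 5 μM thiol, degassed phosphate pH 8, 2% v/v immobilized TCEP beads; 1 h RT; fluorescence ex 380/em 470 nm; normalized vs DMSO/thiol-only; first-order exponential decay fit → rate constant; Cdk2 k / model-thiol k = rate enhancement per acrylamide.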

[1] = target: T2, human cyclin-dependent kinase 2 (Cdk2) (Homo sapiens, UniProt P24941); assay: Kinetic thiol consumption assay with wild type Cdk2 (C177); format: binding; parameters: key to Rate enhancement, Cdk2 WT: k(Cdk2) divided by k(model thiol); Rate constant with Cdk2 (k(Cdk2)): unit not given here; conditions: for Rate constant with Cdk2 (k(Cdk2)): 500 μM ligand, 5 μM thiol, phosphate buffer pH 8; for Rate enhancement, Cdk2 WT: no additional mutations; for Rate constant with Cdk2 WT: Protein: Cdk2, cysteine position WT, in h^-1; for k(Cdk2)/k(Cdk2_mut) rate enhancement: model thiol Cdk2[C177A, F80C, K278C]; for k(Cdk2)/k(GSH) rate enhancement: model thiol glutathione
T2 construct: poly-histidine; made in house; host or cells: E. coli
How it was run: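 His-tagged human Cdk2 (single surface cysteine C177), expressed in E. coli, or a model thiol at 5 μM in degassed phosphate buffer pH 8 was pre-treated with immobilized TCEP beads (2% v/v) before acrylamide addition. Fluorescence (ex/em 380/470 nm) was read after 1 h at room temperature, normalized to DMSO/thiol-only control and plotted versus time.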

Cdk2(S181C) (C177A) = target: T3, Cdk2(S181C) (C177A) (Homo sapiens, UniProt P24941, C177A/S181C); assay: Kinetic thiol consumption assay with Cdk2 mutant S181C; format: binding; parameters: key to Rate enhancement, Cdk2 S181C: rate constant with Cdk2 ÷ rate constant with model thiol (fold); conditions: additional mutation C177A; for Rate constant with Cdk2 S181C: Protein: Cdk2, cysteine position S181C, in h^-1
T3 construct: poly-histidine; made in house; host or cells: E. coli
How it was run: as §1

[2] = Kinetic thiol consumption assay with model thiol glutathione; format: physicochemical; parameters: Rate constant with glutathione (k(GSH)): unit not given here; conditions: for Rate constant with glutathione (k(GSH)): 500 μM ligand, 5 μM thiol, phosphate buffer pH 8; for Rate constant with Glutathione: Protein: Glutathione, cysteine position NA, in h-1
How it was run: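 GSH 5 μM, degassed phosphate buffer pH 8, TCEP beads 2% v/v; acrylamide added; RT, 1 h; fluorescence ex/em 380/470 nm; normalized to DMSO/thiol control; k from first-order exponential decay fit.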

Cdk2(N272C) (C177A) = target: T4, Cdk2(N272C) (C177A) (Homo sapiens, UniProt P24941, C177A/N272C); assay: Kinetic thiol consumption assay with Cdk2 mutant N272C; format: binding; parameters: key to Rate enhancement, Cdk2 N272: rate constant with Cdk2 ÷ rate constant with model thiol (fold); conditions: for Rate enhancement, Cdk2 N272: Cdk2 N272, additional mutation C177A; for Rate constant with Cdk2 N272C: Protein: Cdk2, cysteine position N272C, additional mutation C177A, in h^-1
T4 construct: poly-histidine; made in house; host or cells: E. coli
How it was run: as §1

Cdk2(T182C) (C177A) = target: T5, Cdk2(T182C) (C177A) (Homo sapiens, UniProt P24941, C177A/T182C); assay: Kinetic thiol consumption assay with Cdk2 mutant T182C; format: binding; parameters: key to Rate enhancement, Cdk2 T182C: rate constant with Cdk2 ÷ rate constant with model thiol (fold); conditions: additional mutation C177A; for Rate constant with Cdk2 T182C: Protein: Cdk2, cysteine position T182C, in h^-1
T5 construct: poly-histidine; made in house; host or cells: E. coli
How it was run: as §1

Cdk2[C177A, F80C, K278C] = target: T6, Cdk2[C177A, F80C, K278C] (Homo sapiens, UniProt P24941, C177A/F80C/K278C); assay: Kinetic thiol consumption assay with mutant Cdk2 as model thiol; format: binding; parameters: unit not given here; conditions: 500 μM ligand, 5 μM thiol, phosphate buffer pH 8
T6 construct: poly-histidine; made in house; host or cells: E. coli
How it was run: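 Model thiol: His-tagged human Cdk2 C177A/F80C/K278C (two engineered surface cysteines), E. coli-expressed, 5 μM in degassed phosphate buffer pH 8 with immobilized TCEP beads (2% v/v). Fluorescence (ex/em 380/470 nm) followed over time at room temperature, normalized to DMSO/thiol control. First-order decay fit gives rate constants.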

Cdk2(R122C) (C177A) = target: T7, Cdk2(R122C) (C177A) (Homo sapiens, UniProt P24941, C177A/R122C); assay: Kinetic thiol consumption assay with Cdk2 mutant R122C; format: binding; parameters: key to Rate enhancement, Cdk2 R122C: rate constant with Cdk2 ÷ rate constant with model thiol (fold); conditions: additional mutation C177A; for Rate constant with Cdk2 R122C: Protein: Cdk2, cysteine position R122C, in h-1
T7 construct: poly-histidine; made in house; host or cells: E. coli
How it was run: as §1

Cdk2(S276C) (C177A) = target: T8, Cdk2(S276C) (C177A) (Homo sapiens, UniProt P24941, C177A/S276C); assay: Kinetic thiol consumption assay with Cdk2 mutant S276C; format: binding; parameters: key to Rate enhancement, Cdk2 S276C: rate constant with Cdk2 ÷ rate constant with model thiol (fold); conditions: additional mutation C177A; for Rate constant with Cdk2 S276C: Protein: Cdk2, cysteine position S276C, in h^-1
T8 construct: poly-histidine; made in house; host or cells: E. coli
How it was run: as §1

Cdk2(C177A, F80C) = target: T9, Cdk2(C177A, F80C) (Homo sapiens, UniProt P24941, C177A/F80C); assay: Kinetic thiol consumption assay with Cdk2 mutant F80C, incl. kobs versus concentration (Kd, k2); format: binding; parameters: key to Rate enhancement, Cdk2 F80C: Cdk2 rate constant divided by model-thiol rate constant; conditions: additional mutation C177A; for Rate constant with Cdk2 F80C: Protein: Cdk2, cysteine position F80C, in h^-1
T9 construct: poly-histidine; made in house; host or cells: E. coli
How it was run: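 His-tagged Cdk2(C177A/F80C) from E. coli or model thiol, 5 μM in degassed phosphate buffer pH 8 with TCEP beads, reacted with acrylamide ligands; fluorescence (ex/em 380/470 nm) normalized to DMSO control and fitted to first-order decay for kobs. Kd and k2 obtained from hyperbolic fit of kobs versus ligand concentration.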

Structure (SMILES)	Rate enhancement, Cdk2 H71C (Cdk2(H71C) (C177A))	Rate constant with Cdk2 H71C (Cdk2(H71C) (C177A))	Rate constant with Cdk2 (k(Cdk2)) [1]	Rate enhancement, Cdk2 WT [1]	Rate constant with Cdk2 WT [1]	k(Cdk2)/k(Cdk2_mut) rate enhancement [1]	k(Cdk2)/k(GSH) rate enhancement [1]	Rate enhancement, Cdk2 S181C (Cdk2(S181C) (C177A))	Rate constant with Cdk2 S181C (Cdk2(S181C) (C177A))	Rate constant with glutathione (k(GSH)) [2]	Rate constant with Glutathione [2]	Rate enhancement, Cdk2 N272 (Cdk2(N272C) (C177A))	Rate constant with Cdk2 N272C (Cdk2(N272C) (C177A))	Rate enhancement, Cdk2 T182C (Cdk2(T182C) (C177A))	Rate constant with Cdk2 T182C (Cdk2(T182C) (C177A))	Rate constant with Cdk2[C177A, F80C, K278C] (k(Cdk2_mut)) (Cdk2[C177A, F80C, K278C])	Rate enhancement, Cdk2 R122C (Cdk2(R122C) (C177A))	Rate constant with Cdk2 R122C (Cdk2(R122C) (C177A))	Rate enhancement, Cdk2 S276C (Cdk2(S276C) (C177A))	Rate constant with Cdk2 S276C (Cdk2(S276C) (C177A))	other results
C=CC(=O)NC(C)c1cc(OC)c(OC)c(OC)c1 (centres unmarked) [EL-1101]	0.8384	0.006227	0.00341	0.4606	0.003421	1.51	0.4373	0.396	0.002941	0.0078	0.007427	0.6801	0.005051	1.305	0.009691	0.00226	0.3078	0.002286	0.9981	0.007413	Rate enhancement, Cdk2 F80C (Cdk2(C177A, F80C)): 0.3417; Rate constant with Cdk2 F80C (Cdk2(C177A, F80C)): 0.002538
C=CC(=O)Nc1ccc2nc(C)[nH]c2c1 [EL-1109]	0.5644	0.004838	0.00827	0.9701	0.008316	0.8966	0.9595	1.588	0.01361	0.00862	0.008572	0.3872	0.003319	5.286	0.04531	0.00922	0.7255	0.006219	0.9188	0.007876	Rate enhancement, Cdk2 F80C (Cdk2(C177A, F80C)): 1.94; Rate constant with Cdk2 F80C (Cdk2(C177A, F80C)): 0.01663
C=CC(=O)Nc1ccc(C(=O)NC2CCCC2)cc1 [EL-1114]	3.388	0.1021	0.07947	2.637	0.07947	0.3457	2.652	0.3942	0.01188	0.02997	0.03014	0.04599	0.001386	16.35	0.4929	0.2299	0.259	0.007805	0.7973	0.02403	Rate enhancement, Cdk2 F80C (Cdk2(C177A, F80C)): 9.237; Rate constant with Cdk2 F80C (Cdk2(C177A, F80C)): 0.2784
C=CC(=O)N1CCN(C(=O)OCC)CC1c1cccs1 (centres unmarked) [EL-1121]	1.52	0.03901	0.01328	0.5173	0.01328	0.854	0.5173	1.051	0.02699	0.02567	0.02567	0.5551	0.01425	1.411	0.03623	0.01555	0.2677	0.006872	0.7713	0.0198	Rate enhancement, Cdk2 F80C (Cdk2(C177A, F80C)): 0.4897; Rate constant with Cdk2 F80C (Cdk2(C177A, F80C)): 0.01257
C=CC(=O)N1CCN(c2ccccc2[N+](=O)[O-])CC1 [EL-1134]	4.627	0.02042	0.0071	1.609	0.007099	0.3385	1.597	1.601	0.007065	0.00444	0.004413	1.119	0.004938	14.4	0.06354	0.02097	1.145	0.005054	1.414	0.006242	Rate enhancement, Cdk2 F80C (Cdk2(C177A, F80C)): 3.947; Rate constant with Cdk2 F80C (Cdk2(C177A, F80C)): 0.01742

Source: patent US11415579B2, “Assay for measuring a rate of reaction between a target and a ligand candidate” (Imperial College Innovations Ltd., priority 2016, dated 2022)
